System: Plasmodium falciparum
Experiment: GSK_TCMDC: Inhibition of Plasmodium falciparum 3D7 in whole erythrocytes, using parasite LDH activity as an index of growth.
Assay type: functional, organism-based
Settings: Plasmodium falciparum, 3D7

| SMILES | XC50 [nM] |
| --- | --- |
| CCN(CC)Cc1ccc2c(=O)cc(CCc3cccc(F)c3F)n(CC(=O)N(Cc3ccc(-c4ccc(C(F)(F)F)cc4)cc3)C(C)C)c2c1 | 782 |
| c1ccc2[nH]c(-c3ccc(-c4ccc(CN5CCN(c6ccncc6)CC5)cc4)cc3)nc2c1 | 164 |
| Cc1cccc(C(=O)N2CCN(Cc3cccc(NC(=O)c4ccco4)c3)CC2)c1 | 761 |
| N#Cc1ccc(N(CCOc2ccc(Cl)c(F)c2)Cc2ccccc2C(F)(F)F)cc1C(F)(F)F | 685 |
| CCCCCn1c(Sc2ccc(C#N)c([N+](=O)[O-])c2)nnc1-c1cc(OC)cc(OC)c1 | 956 |
| COc1cc2nccc(Nc3ccc(OCc4ccc(NC(C)=O)cc4)cc3)c2cc1OC | 553 |
| CC(C)CNCc1cccc(-c2cccc(CN(CCCN3CCN(C)CC3)C(=O)CCC3CCCC3)c2)c1 | 624 |
| Fc1cccc(COc2ccc(Nc3ncnc4sc(C#Cc5ncc[nH]5)cc34)cc2Cl)c1 | 134 |
| CS(=O)(=O)CCNCc1nc(-c2ccc3c(Nc4ccc(Cl)cc4F)ccnc3c2)cs1 | 1080 |
| CO/N=C(\C)c1ccc2c(c1)CCN(CCC1CCC(NC(=O)/C=C/c3ccc(F)cc3)CC1)CC2 (stereo not drawn) | 1070 |
| O=C(c1ccccc1)N(Cc1ccccc1-c1ccc(CNCCc2ccccc2)cc1)C1CCN(Cc2ccccc2)CC1 | 995 |
| CS(=O)(=O)c1ccc(CCNCc2ccc(-c3ccc(CN(C(=O)c4ccco4)C4CCN(Cc5ccccc5)CC4)cc3)nc2)cc1 | 884 |
| O=C(NCC(CCN1CCC(c2c[nH]c3ccccc23)CC1)c1ccccc1)Nc1ccc(Cl)c(Cl)c1 (stereo not drawn) | 833 |
| Cc1cc(N(C)C)nc(Nc2ccc(NC(=O)C3CCCCC3)cc2)n1 | 1110 |
| CC(C)(C)C/C=C\c1ccc(C(=O)NCC2CC2)cc1 | 850 |
| N#Cc1ccc(C=Cc2nccc3c2[nH]c2ccccc23)cc1 | 643 |
| Nc1c2c(nc3ccc(NC(=O)c4ccccc4)cc13)CCCC2 | 611 |
| CCCNC(=O)c1cncc(-c2ccc(CNC3Cc4ccccc4C3)cc2)c1 | 848 |
| O=C(NCCN1CCC(c2ccncc2)CC1)c1cccc(Nc2nccc(Nc3ccc(Oc4ccccc4)cc3)n2)c1 | 168 |
| COc1cc(C2NCC3(CCOCC3)c3cc4c(cc32)OCCO4)cc(OC)c1OC (stereo not drawn) | 169 |
| Cc1cc(N[C@@H](CC(C)C)C(=O)NCCc2ccccc2)nc(NCCc2ccc(F)cc2)n1 | 771 |
| Cc1ccccc1OCC(O)CN1CCC(C2CCN(CC(O)COc3ccccc3C)CC2)CC1 (stereo not drawn) | 307 |
| Cc1cc(O)c(CN(C)Cc2ccc(N(C)C)cc2)cc1C(C)C | 550 |
| CCC(C)NC(=O)CN1CN(c2ccccc2)C2(CCN(C(=O)c3ccc4ccccc4c3)CC2)C1=O (stereo not drawn) | 627 |
| CCOc1cc(C(=O)NC2CCN(Cc3ccccc3)CC2)ccc1-c1nc2cc(Cl)c(Cl)cc2[nH]1 | 469 |

| SMILES | XC50 [nM] |
| --- | --- |
| Cc1[nH]c(C)c(-c2ccc(OCCn3cnc(Cl)c3Cl)cc2)c(=O)c1Br | 853 |
| O=C(/C=C/c1ccc(Cl)c(Cl)c1)NCCCCCN1CCCC(C(=O)Nc2ccc(F)c(Cl)c2)C1 (stereo not drawn) | 903 |
| Nc1c(Cl)cc(C(O)CNCCCCCOCCc2ccc3occc3c2)cc1Cl (stereo not drawn) | 690 |
| FC(F)(F)COc1ccc2ccccc2c1CNCCCCCCNCc1c(OCC(F)(F)F)ccc2ccccc12 | 352 |
| CCn1c(C=Cc2cc(Br)ccc2O)nc2ccccc2c1=O | 654 |
| Cc1nc(C)c(-c2ccc(Br)cc2)c(O)c1Br | 638 |
| COCC(C)n1c(SC(C)C(=O)Nc2cc([N+](=O)[O-])ccc2Cl)nc2ccccc2c1=O (stereo not drawn) | 229 |
| C=CCn1c(Sc2ccc(C#N)c([N+](=O)[O-])c2)nnc1-c1ccc(Cl)cc1 | 667 |
| CS(=O)(=O)c1ccc2nc(NC(=O)c3csnn3)sc2c1 | 666 |
| O=C1C(=Cc2cc(Cc3ccccc3)ccc2O)SC(=S)N1Cc1ccccc1 | 943 |
| O=C(Nc1ccc(C(F)(F)F)cc1)c1ccc(S(=O)(=O)NC2CCN(Cc3ccccc3)C2)cc1 (stereo not drawn) | 618 |
| CCOc1cc(C)ccc1C1CCN(CCCCNC(=O)c2cccc(-c3ccc(C(F)(F)F)cc3)c2)CC1 | 937 |
| COc1cc2c(cc1C(F)(F)F)N(C(=O)Nc1cc(F)cc(-c3cccnn3)c1)CC2 | 275 |
| O=C(/C=C/c1ccc(Cl)cc1)NCCCCCN1CCCC(C(=O)Nc2ccc(Cl)cc2)C1 (stereo not drawn) | 1050 |
| Cc1cc(CNC(=O)[C@H](CC2CCCCC2)Nc2ccc(C#N)c3ccccc23)c(C(F)(F)F)o1 | 1180 |
| COc1ccc(C(=O)CCC(=O)N(Cc2ccc(-c3ccc(CNCCc4ccc(S(C)(=O)=O)cc4)cn3)cc2)Cc2ccc3c(c2)OCO3)cc1F | 943 |
| CCN(CC)CCCOc1ccc(Nc2nccc(-c3c(-c4cccc(NC(=O)c5c(F)cccc5F)c4)nn4ccccc34)n2)cc1F | 407 |
| Oc1ccc(Nc2nc(NCc3ccco3)c3ccccc3n2)cc1 | 674 |
| Clc1ccc(-c2cc(-c3csc(NCCN4CCCCC4)n3)on2)cc1 | 989 |
| CC(C)(C)c1cc(C(=O)Nc2ccc(C(=N)N)cc2)c(O)c(C(C)(C)C)c1 | 763 |
| CCc1c(CCNC/C=C/C=C/CNCCc2ccc(OC)c(OC)c2CC)ccc(OC)c1OC | 968 |
| Cc1cc2c(cc1C(F)(F)F)N(C(=O)Nc1cnc(OCCN(C)C)c(C(F)(F)F)c1)CC2 | 966 |
| Cc1ccc(O)cc1Nc1ccnc2cc(-c3csc(CN4CCN(C)CC4)n3)ccc12 | 597 |
| CC(C)(C)CNc1noc(-c2sccc2Br)n1 | 1120 |
| CC1(C)N=C(N)N=C(NOCc2ccc(Cl)c(Cl)c2)N1 | 228 |

| SMILES | XC50 [nM] |
| --- | --- |
| CCc1cccc(-n2c(=O)c3cccnc3n2CC(=O)NC2CCCC2)c1 | 932 |
| CC(C)CCN1CCCN(Cc2cccc(C(=O)Nc3ccc(C(C)(C)C)cc3)c2)CC1 | 1100 |
| C/C=C/COc1ccc2ccccc2c1CNCCCCCCCCNCc1c(OC/C=C/C)ccc2ccccc12 | 908 |
| CCCCNC(=O)c1cc(CNC2CCCCC2)ccc1-c1cccc(CNCc2ccc(-c3ccccc3)cc2)c1 | 531 |
| Cn1cc(C(=O)Nc2cccc(-c3cccc(-c4nc5cc(F)ccc5[nH]4)c3)c2)n(C)c1=O | 388 |
| CC(C)NCc1ccc(-c2cccc(NC(=O)c3ccc(F)cc3)c2)cc1 | 881 |
| COc1ccccc1-c1nc2c(ccc3nc(N)nc(N)c32)[nH]1 | 176 |
| Nc1ncc(-c2cc3ccccc3o2)c(N)n1 | 1410 |
| O=C(Nc1ccc(Br)c(Cl)c1)c1cc([N+](=O)[O-])cc2cn[nH]c12 | 1060 |
| CC12CCC(CN(CC(O)Cn3c4ccccc4c4cc(I)ccc43)C1)C2(C)C (stereo not drawn) | 1160 |
| CCOc1ccc(C(=O)Nc2nonc2-c2ccc(OC)c(OC)c2)cc1 | 868 |
| Cc1cc(Nc2ccc(Cl)c(Cl)c2)n2nc(C)nc2n1 | 258 |
| CN(c1cc(NC(=O)c2ccc(F)cc2)ccn1)C1CCN(Cc2cccc(O)c2)CC1 | 922 |
| O=C(NCCCN(Cc1ccc(F)cc1)c1ccccn1)C(c1cc2ccccc2o1)N1CCN(C(c2ccccc2)c2ccccc2)CC1 (stereo not drawn) | 838 |
| O=c1cc(NCCCNC2CCc3ccc(Cl)cc32)[nH]c2ccccc12 (stereo not drawn) | 862 |
| CCOc1ccc2c(c1)OC(c1ccccc1)(C(F)(F)F)NC2=O (stereo not drawn) | 167 |
| O=c1cc(NCCCNCc2cc(Br)cs2)[nH]c2ccccc12 | 1060 |
| NC1CCCN(Cc2cccc(-c3ccc(-c4nc5cc(F)ccc5[nH]4)cc3)c2)C1 (stereo not drawn) | 566 |
| CCCCCCCCn1ccc(=N)cc1 | 840 |
| CC[C@H]1CN2CC[C@H]1C[C@@H]2[C@@H](O)c1ccnc2ccccc12 | 279 |
| CC(=O)Nc1ccc(OCCCCN(Cc2ccccc2OC(F)(F)F)c2ccc(C(F)(F)F)c(C#N)c2)c(Cl)c1 | 529 |
| COCCN(C(=O)Cc1cccs1)C(C(=O)NCc1ccc(OC)cc1)c1ccc(C(C)C)cc1 (stereo not drawn) | 845 |
| COc1ccc2nccc([C@@H](O)CN3CCC(NCc4cc5cc(Cl)ccc5[nH]4)CC3)c2c1 | 128 |
| COc1ccc2ccccc2c1CCCCN1CCN(CC(c2ccc(F)cc2)N2CCC(N3CCCC3)CC2)CC1 (stereo not drawn) | 619 |
| CCCN1CCN(CCCNC(=O)c2cc3c(Cl)nc4ccc(C)cc4c3s2)CC1 | 802 |

| SMILES | XC50 [nM] |
| --- | --- |
| CC(C)(C)c1ccc(NC(=O)c2cccc(CN3CCCN(Cc4cccc(C#N)c4)CC3)c2)cc1 | 755 |
| FC(F)(F)Oc1ccc(-c2cnc3ccc(NCc4ccncc4)nn23)cc1 | 866 |
| Cc1cccc(Nc2nc3nonc3nc2Nc2cccc(Cl)c2Cl)c1C | 1030 |
| O=C(c1cc2nc3c(c(C(F)(F)F)n2n1)CCc1ccccc1-3)N1CCN2CCCC2C1 (stereo not drawn) | 947 |
| CC(C)CCNC(=O)[C@@H]1[C@H]2C(=O)N(C3CCCCC3)C(=O)[C@H]2[C@H]2C=C[C@@H]3C(c4ccc(C(C)(C)C)cc4)=NO[C@@H]3N21 | 788 |
| NC1CCCN(Cc2ccc(-c3cccc(-c4nc5ccccc5[nH]4)c3)cc2)C1 (stereo not drawn) | 721 |
| Cc1cc(C(=O)Nc2ccc(-c3ccccc3)cc2)no1 | 694 |
| NS(=O)(=O)c1cccc(Nc2nccc(-c3c(-c4cccc(NC(=O)c5c(F)cccc5F)c4)nn4ccccc34)n2)c1 | 73.6 |
| O=c1cc(NCCCNCc2cccc(SC(F)(F)F)c2)[nH]c2ccccc12 | 725 |
| CO/C(=C\C=C\c1cc2cc(Cl)c(Cl)cc2[nH]1)C(=O)N[C@H]1CN2CCC1CC2 | 1210 |
| CC(=O)N1N=C(c2ccc(Cl)cc2)Sc2c1nc(-c1ccccc1)n2C(C)=O | 493 |
| O=C1C(c2ccccc2)=C(Nc2cccc(OC(F)(F)C(F)F)c2)c2ccccc21 | 180 |
| CN(Cc1cc(C(F)(F)F)cc(C(F)(F)F)c1)C(=O)C(Cc1ccc(F)cc1)C1CCCNC1 (stereo not drawn) | 1540 |
| COc1ccc2nccc(NC(=O)N3CCC(NCc4cc5ccccc5[nH]4)CC3)c2n1 | 556 |
| Nc1ccc(-c2csc(Nc3ccncc3)n2)cc1 | 939 |
| COc1ccc(-n2nc(C)cc2C(=O)NCc2ccc(-c3c(C)noc3C)cc2)cc1 | 980 |
| CCOc1cc(C(=O)NCCN(C(C)C)C(C)C)ccc1-c1nc2cc(Cl)ccc2[nH]1 | 778 |
| O=C(NC1CC1)C1CCN(Cc2cc3ccccc3n2Cc2ccc(Cl)cc2)CC1 | 489 |
| Cc1[nH]c(C)c(-c2ccc(/C=C/c3ccccn3)cc2)c(=O)c1Cl | 516 |
| Cc1cccc(CNc2nccc3[nH]c4ccccc4c23)c1 | 1900 |
| COc1cc(C(C)C)ccc1N1CCN(CCCCNC(=O)c2ccc(NC(=O)c3ccc(Cl)cc3)cc2)CC1 | 576 |
| COc1ccc2nccc([C@@H](O)CN3CCC(NC(=O)/C=C/c4ccnc5ccccc45)CC3)c2c1 | 939 |
| CCN(CC)C(=O)C1CCCN(c2cc(C)nc(Nc3ccc(Cl)cc3)n2)C1 (stereo not drawn) | 718 |

From ChEMBL document CHEMBL1157539, “Thousands of chemical starting points for antimalarial lead identification” (Nature, 2010)
